Patent publication US5189169A (priority 1991, dated 1993)
Several values for one entry are separate records, joined by “and”; a condition that tells them apart may be missing. Identical values can stand only once.

How the values were obtained:
[1] = test system: three broadleaf weeds: wild mustard, redroot pigweed and curly dock; test: Post-emergence herbicidal activity, broadleaf weeds (Table III); type: in vivo, Brassica kaber, Amaranthus retroflexus, Rumex crispus; settings: 2.24 kg/ha, 2-3 weeks after treatment
Procedure: (§1) The herbicidal effect was observed by comparing the extent of weed control in test flats treated with the compounds against that occurring in similar non-treated control flats. All were applied at 3.57 lb/A (4 kg/ha) to pre-emergence and post-emergence screening flats. An 80 gal/A (748.3 1/ha) spray volume was utilized. Post-emergence flats were seeded 12 days prior to treatment. Pre-emergence flats were seeded one day prior to treatment. Overhead watering of pre-emergence flats and soil surface watering of post-emergence flats, so as to avoid wetting the foliage, were carried out for the duration of the test.
(§2) Weed seeds were planted in a flat at a seed depth of 0.5 inch (1.3 cm). Soil for flats was prepared using loam soil fortified with 17-17-17 fertilizer (N-P2 O5 -K2 O on a weight basis) and Captan 80W fungicide. The test weeds were as follows:
(§3) The spray solutions were prepared by dissolving 240 mg of test compound in 20 ml of acetone containing 1% polyoxyethylene sorbitan monolaurate emulsifier, then adding 20 ml of water to the resulting solution. The spray solutions were applied using a linear spray table. Pre-emergence flats are raised to the level of the post-emergence foliage canopy by setting the flats on a wooden block.
(§4) The degree of weed control was visually assessed and recorded as percentage control compared to the growth of the same species in an untreated check flat of the same age. The rating scale ranges from 0 to 100%, where 0 equals no effect with plant growth equal to the untreated control, and 100 equals complete kill.
(§5) Compounds 68 to 145 in Table I were tested generally similarly to Compounds No. 1 to 67 with the following differences: The rate of application was 2 lb/acre (2.24 kg/ha), no 6-day evaluations were made, and the weeds were:
(§6) Three broadleaf weeds: wild mustard, redroot pigweed (Amaranthus retroflexus) and curly dock (Rumex crispus).
(§7) Ratings were taken 2-3 weeks after treatment.

[2] = test system: four grassy weeds: wild oat, watergrass, green foxtail and crabgrass; test: Pre-emergence herbicidal activity, grassy weeds (Table III); type: in vivo; settings: 2.24 kg/ha, 2-3 weeks after treatment
Procedure: as §1, §2, §3, §4, §5
(§8) Four grassy weeds: wild oat, watergrass, green foxtail and crabgrass (Digitaria sanguinalis);
as §7

[3] = test system: three broadleaf weeds: wild mustard, redroot pigweed and curly dock; test: Pre-emergence herbicidal activity, broadleaf weeds (Table III); type: in vivo, Brassica kaber, Amaranthus retroflexus, Rumex crispus; settings: 2.24 kg/ha, 2-3 weeks after treatment
Procedure: as §1, §2, §3, §4, §5, §6, §7

[4] = test system: four grassy weeds: wild oat, watergrass, green foxtail and crabgrass; test: Post-emergence herbicidal activity, grassy weeds (Table III); type: in vivo; settings: 2.24 kg/ha, 2-3 weeks after treatment
Procedure: as §1, §2, §3, §4, §5, §8, §7

[5] = test system: three broadleaf weeds (morning glory, mustard, velvetleaf); design: species or system Ipomoea purpurea, Brassica kaber, Abutilon theophrasti; settings: in vivo
yellow nutsedge [6] = test system: yellow nutsedge; design: species or system Cyperus esculentus; settings: in vivo
yellow nutsedge [7] = test system: yellow nutsedge; design: species or system Cyperus esculentus; settings: in vivo; remark: listed apart in the source
[8] = test system: three grassy weeds (wild oat, watergrass, foxtail); design: species or system Avena fatua, Echinochloa crusgalli, Setaria viridis; settings: in vivo
[9] = test system: three broadleaf weeds (morning glory, mustard, velvetleaf); design: species or system Ipomoea purpurea, Brassica kaber, Abutilon theophrasti; settings: in vivo; remark: listed apart in the source

| Compound | % Control, Post-Emergence, BL Avg. [1] | % Control, Pre-Emergence, GR Avg. [2] | % Control, Pre-Emergence, BL Avg. [3] | % Control, Post-Emergence, GR Avg. [4] | % Control, Pre-emergence, BL avg. [5] | % Control, Post-emergence, NS (yellow nutsedge [6]) | % Control, Pre-emergence, NS (yellow nutsedge [7]) | % Control, Pre-emergence, GR avg. [8] | % Control, Post-emergence, BL avg. [9] |
| --- | --- | --- | --- | --- | --- | --- | --- | --- | --- |
| CCCN(CCC)P(=O)(SC(C)CC)N(CCC)CCC (stereo not drawn) [Compound 80] | 100% | 25% | 53% | 80% |  |  |  |  |  |
| CCCCSP(=O)(N(CC)CCCC)N(CCC)CCC (stereo not drawn) [Compound 90] | 100% | 0% | 7% | 86% |  |  |  |  |  |
| CCCCN(CCCC)P(=O)(SC(C)C)N(CCC)CCC (stereo not drawn) [Compound 125] | 70% | 0% | 0% | 59% |  |  |  |  |  |
| CCCCN(CC)P(=O)(SC(C)CC)N(CCC)CCC (stereo not drawn) [Compound 114] | 93% | 0% | 0% | 56% |  |  |  |  |  |
| CCCCN(CCCC)P(=O)(SCC)N(CCC)CCC (stereo not drawn) [Compound 123] | 89% | 0% | 0% | 65% |  |  |  |  |  |
| CCCN(CCC)P(=O)(SC(C)C)N(CCC)CCC [Compound 79] | 99% | 35% | 50% | 85% |  |  |  |  |  |
| CCCCN(CCCC)P(=O)(SCC)N(CC)CC (stereo not drawn) [Compound 84] | 99% | 5% | 13% | 75% |  |  |  |  |  |
| CCCCCSP(=O)(N(CCC)CCC)N(CCC)CCC [Compound 131] | 93% | 0% | 23% | 58% |  |  |  |  |  |
| CCCCN(CCCC)P(=O)(SCC)N(CCCC)CCCC [Compound 82] | 99% | 0% | 0% | 75% |  |  |  |  |  |
| CCCN(CCC)P(=O)(SC1CCCCC1)N(CCC)CCC [Compound 118] | 63% | 0% | 0% | 30% |  |  |  |  |  |
| CCCCN(CCCC)P(=O)(SCCC)N(CCC)CCC (stereo not drawn) [Compound 124] | 79% | 0% | 0% | 67% |  |  |  |  |  |
| CCCCN(CCCC)P(=O)(SC(C)CC)N(CCC)CCC (stereo not drawn) [Compound 127] | 99% | 0% | 0% | 59% |  |  |  |  |  |
| CCCSP(=O)(N(CC)CC)N(CCC)CCC (stereo not drawn) [Compound 145] | 87% | 0% | 30% | 60% |  |  |  |  |  |
| CCCCCSP(=O)(N(CCCC)CCCC)N(CCCC)CCCC [Compound 132] | 67% | 8% | 20% | 40% |  |  |  |  |  |
| CCCN(CCC)P(=O)(SCC)N1CC(CC)CCC1C (stereo not drawn) [Compound 96] | 67% | 0% | 10% | 65% |  |  |  |  |  |
| CCCCSP(=O)(N(CCCC)CCCC)N(CCCC)CCCC [Compound 83] | 99% | 5% | 7% | 82% |  |  |  |  |  |
| CCCCN(CCCC)P(=O)(SC(C)C)N(C)C (stereo not drawn) [Compound 109] | 98% | 23% | 20% | 85% |  |  |  |  |  |
| CCCCN(CC)P(=O)(SCCC)N(CCC)CCC (stereo not drawn) [Compound 89] | 100% | 0% | 7% | 90% |  |  |  |  |  |

| Compound | % Control, Post-Emergence, BL Avg. [1] | % Control, Pre-Emergence, GR Avg. [2] | % Control, Pre-Emergence, BL Avg. [3] | % Control, Post-Emergence, GR Avg. [4] | % Control, Pre-emergence, BL avg. [5] | % Control, Post-emergence, NS (yellow nutsedge [6]) | % Control, Pre-emergence, NS (yellow nutsedge [7]) | % Control, Pre-emergence, GR avg. [8] | % Control, Post-emergence, BL avg. [9] |
| --- | --- | --- | --- | --- | --- | --- | --- | --- | --- |
| CCCCN(CCCC)P(=O)(SC(C)CC)N(C)C (stereo not drawn) [Compound 111] | 99% | 10% | 10% | 72% |  |  |  |  |  |
| CCCN(CCC)P(=O)(Sc1ccccc1)N(CCC)CCC [Compound 78] | 98% | 0% | 0% | 50% |  |  |  |  |  |
| CCCCN(CCCC)P(=O)(SCCC)N(C)C (stereo not drawn) [Compound 108] | 98% | 15% | 13% | 76% |  |  |  |  |  |
| CCCCN(CCCC)P(=O)(SC(C)(C)C)N(CCC)CCC (stereo not drawn) [Compound 128] | 80% | 0% | 0% | 38% |  |  |  |  |  |
| C=CCSP(=O)(N(CCC)CCC)N(CCC)CCC [Compound 99] | 99% | 22% | 37% | 58% |  |  |  |  |  |
| C=CCN(CC=C)P(=O)(SCCCC)N(CCC)CCC (stereo not drawn) [Compound 77] | 99% | 0% | 0% | 53% |  |  |  |  |  |
| CCCCCSP(=O)(N(CC)CCCC)N(CCC)CCC (stereo not drawn) [Compound 133] | 97% | 0% | 10% | 59% |  |  |  |  |  |
| C=CCN(CC=C)P(=O)(SCC)N(CCC)CCC (stereo not drawn) [Compound 75] | 98% | 0% | 0% | 62% |  |  |  |  |  |
| CCCCN(CC)P(=O)(SC(C)C)N(CCC)CCC (stereo not drawn) [Compound 91] | 99% | 0% | 3% | 84% |  |  |  |  |  |
| CCCCN(CCCC)P(=O)(SC(C)CC)N(CC)CC (stereo not drawn) [Compound 102] | 99% | 30% | 40% | 70% |  |  |  |  |  |
| CCCCCSP(=O)(N(CCC)CCC)N(CCCC)CCCC (stereo not drawn) [Compound 130] | 97% | 0% | 16% | 59% |  |  |  |  |  |
| CCCN(CCC)P(=O)(SC(C)C)N1CC(CC)CCC1C (stereo not drawn) [Compound 97] | 86% | 0% | 20% | 67% |  |  |  |  |  |
| CCCN(CCC)P(=O)(SC(C)(C)CC)N(CCC)CCC [Compound 81] | 83% | 0% | 0% | 66% |  |  |  |  |  |
| CCCCN(CCCC)P(=O)(SCCC)N(CC)CC (stereo not drawn) [Compound 85] | 99% | 12% | 10% | 89% |  |  |  |  |  |
| C=CCN(CC=C)P(=O)(SCCC)N(CCC)CCC (stereo not drawn) [Compound 76] | 99% | 0% | 0% | 61% |  |  |  |  |  |
| CCCSP(=O)(N(CCC)CCC)N(C)c1cc(F)ccc1C (stereo not drawn) [Compound 67] |  |  |  |  | 16% | 0% | 0% | 0% | 95% and 100% |
| CCCCN(c1ccc(F)cc1)P(=O)(SCCC)N(CCC)CCC (stereo not drawn) [Compound 55] |  |  |  |  | 3% | 0% | 5% | 13% | 90% and 86% |
| CCCSP(=O)(N(CCC)CCC)N(C)c1cc(Cl)ccc1Cl (stereo not drawn) [Compound 34] |  |  |  |  | 0% | 0% | 0% | 0% | 80% and 93% |
